Patent US20170008888A1 (KYORIN PHARMACEUTICAL CO., LTD., priority 2014, published 2017)
Blank lines part the entries; values can stand above or below the molecule they belong to.

Key:
[1] = target: T1, ERK5 (Homo sapiens, UniProt Q13164); assay: Probe-based (AX9989 acyl phosphate ATP probe) kinase profiling in Jurkat lysate: ERK5; assay type: binding; conditions: for IC50: calculated from percent inhibition of AX9989 labeling and the screening concentration, Jurkat lysate; for inhibition at 1 µM: screening concentration 1.0 μM, read-out: Kinase inhibition % at indicated screening concentration: ERK5
T1 construct: screened for activity against several kinases in Jurkat cells; endogenous in cells; host or cells: Jurkat cell lysate
T1 sequence (Q13164 whole entry): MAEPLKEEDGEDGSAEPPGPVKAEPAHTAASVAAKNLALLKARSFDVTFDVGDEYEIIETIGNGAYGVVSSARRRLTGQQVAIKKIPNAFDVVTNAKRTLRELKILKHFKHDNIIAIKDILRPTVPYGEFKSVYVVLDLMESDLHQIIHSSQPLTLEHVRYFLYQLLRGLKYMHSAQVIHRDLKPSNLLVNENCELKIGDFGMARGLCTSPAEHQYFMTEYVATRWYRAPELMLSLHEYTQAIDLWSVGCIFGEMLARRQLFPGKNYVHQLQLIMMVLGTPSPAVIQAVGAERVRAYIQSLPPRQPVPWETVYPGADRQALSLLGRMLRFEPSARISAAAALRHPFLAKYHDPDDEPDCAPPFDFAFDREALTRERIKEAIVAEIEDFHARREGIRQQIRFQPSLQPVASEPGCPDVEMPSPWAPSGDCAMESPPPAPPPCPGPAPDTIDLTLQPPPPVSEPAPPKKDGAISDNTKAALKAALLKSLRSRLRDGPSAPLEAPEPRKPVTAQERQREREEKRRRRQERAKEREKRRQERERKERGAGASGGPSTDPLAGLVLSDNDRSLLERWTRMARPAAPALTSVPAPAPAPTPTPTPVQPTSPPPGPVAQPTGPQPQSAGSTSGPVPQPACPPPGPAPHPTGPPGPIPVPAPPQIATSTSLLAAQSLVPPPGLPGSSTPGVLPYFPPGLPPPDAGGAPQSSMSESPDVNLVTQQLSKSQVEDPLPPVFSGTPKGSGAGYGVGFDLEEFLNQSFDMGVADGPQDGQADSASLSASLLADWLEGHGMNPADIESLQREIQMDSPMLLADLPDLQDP
Description: (§1) In this example, potency of the compounds as ERK5 inhibitors was assessed, and the compounds were screened for activity against several kinases in Jurkat cells.
(§2) Jurkat cell pellets were resuspended in four volumes of lysis buffer (50 mM HEPES pH 7.5, 150 mM NaCl, 0.1% Triton-X-100, 1% v/v phosphatase, inhibitor cocktail II [EMD/Calbiochem, #524625]), sonicated using a tip, sonicator, and Dounce homogenized. Lysate was cleared by centrifugation, at 16,000 g for 15 min., was gel filtered (BioRad 10DG) and MnCl2 was then added to a final concentration of 20 mM before treatment with the test compound and probe labeling. […] All compound treatments were performed at room temperature.
(§3) Acyl phosphate ATP probe (AX9989) labeling reactions were performed at room temperature with a final probe concentration of 5 μM after a 15 min pre-incubation of lysate with a test compound. All reactions were performed in duplicate, using 445 μl/sample at 5 mg/ml. Probe-labeled lysates were denatured and reduced (6 M urea, 10 mM DTT, 65° C., 15 min), alkylated (40 mM iodoacetamide, 37° C., 30 min, and gel filtered (Sephadex G25) into 10 mM ammonium bicarbonate, 2 M urea, 5 mM methionine. The desalted protein mixture was digested with trypsin (0.015 mg/ml) for 1 hr at 37° C., and desthiobiotinylated peptides were captured using a […] high-capacity streptavidin resin (Thermo Scientific). Captured peptides were then washed extensively using 150 μl/wash with three different wash buffers: (A) 3 times with 1% triton, 0.5% tergitol, 1 mM EDTA in PBS; (B) 18 times with PBS; and (C) 8 times with HPLC grade water. Peptides were eluted from the streptavidin beads using two 35-μL washes of a 50% CH3CN/water mixture containing 0.1% TFA at room temperature.
(§4) Kinase active site peptides were identified and quantified using LC/MS. Percent inhibition was calculated as the normalized decrease in the ESI-MS fragment intensities of probe-labeled peptides in samples incubated with the test compound compared to those without.
ERK5 IC50 values were calculated from the percent inhibition and the screening concentration.

[2] = tested on: human PBMCs; assay: Human PBMC TNF-α response to endotoxin (ELISA); assay type: cell-based; conditions: 0.1 μg/ml LPS 16 h, read-out: EC50 for the inhibition of the human PBMC TNF-α response to endotoxin, ave. ± S.D.
Description: Human PBMCs (Astarte Biologics, Redmond, Wash.) were seeded at 2e6 cells/ml in RPMI 1640 containing 10% (v/v) charcoal-dextran treated, heat inactivated FBS (Omega Scientific, Tarzana, Calif.), 0.05 mM 2-Mercaptoethanol (Sigma-Aldrich, St. Louis, Mo.), and 1×Pen/Strep Amphotericin B (Lonza, Allendale, N.J.). Cells were pre-treated with test compounds (10 μM down by ⅕ in a 4-point serial dilution series) for 1 h at 37° C. in a humidified atmosphere at 5% CO2. Cells were then stimulated with 0.1 μg/ml lipopolysaccharide (LPS) from E. coli 0111:B4 (EMD Millipore, Billerica, Mass.) for 16 h at 37° C. in a humidified atmosphere at 5% CO2. Supernatant was collected and a 25-fold dilution was analyzed for TNF-α concentration using an ELISA kit from Life Technologies (Grand Island, N.Y.) according to the manufacturer's instructions. Absorbance at 450 nm was read using the Synergy 2 multi-detection microplate reader (BioTek Instruments, Winooski, Vt.).

[3] = tested on: AMPKa1 or AMPKa2; assay: Probe-based (AX9989) kinase profiling in Jurkat lysate: AMPKa1 or AMPKa2; assay type: binding; conditions: screening concentration 1.0 μM
Description: as §1, §2, §3, §4

[4] = target: T2, JAK1 (Homo sapiens, UniProt P23458); assay: Probe-based (AX9989) kinase profiling in Jurkat lysate: JAK1; assay type: binding; conditions: screening concentration 1.0 μM; read-out: Kinase inhibition % at indicated screening concentration: JAK1
T2 construct: screened for activity against several kinases in Jurkat cells; endogenous in cells; host or cells: Jurkat cell lysate
T2 sequence (P23458 whole entry): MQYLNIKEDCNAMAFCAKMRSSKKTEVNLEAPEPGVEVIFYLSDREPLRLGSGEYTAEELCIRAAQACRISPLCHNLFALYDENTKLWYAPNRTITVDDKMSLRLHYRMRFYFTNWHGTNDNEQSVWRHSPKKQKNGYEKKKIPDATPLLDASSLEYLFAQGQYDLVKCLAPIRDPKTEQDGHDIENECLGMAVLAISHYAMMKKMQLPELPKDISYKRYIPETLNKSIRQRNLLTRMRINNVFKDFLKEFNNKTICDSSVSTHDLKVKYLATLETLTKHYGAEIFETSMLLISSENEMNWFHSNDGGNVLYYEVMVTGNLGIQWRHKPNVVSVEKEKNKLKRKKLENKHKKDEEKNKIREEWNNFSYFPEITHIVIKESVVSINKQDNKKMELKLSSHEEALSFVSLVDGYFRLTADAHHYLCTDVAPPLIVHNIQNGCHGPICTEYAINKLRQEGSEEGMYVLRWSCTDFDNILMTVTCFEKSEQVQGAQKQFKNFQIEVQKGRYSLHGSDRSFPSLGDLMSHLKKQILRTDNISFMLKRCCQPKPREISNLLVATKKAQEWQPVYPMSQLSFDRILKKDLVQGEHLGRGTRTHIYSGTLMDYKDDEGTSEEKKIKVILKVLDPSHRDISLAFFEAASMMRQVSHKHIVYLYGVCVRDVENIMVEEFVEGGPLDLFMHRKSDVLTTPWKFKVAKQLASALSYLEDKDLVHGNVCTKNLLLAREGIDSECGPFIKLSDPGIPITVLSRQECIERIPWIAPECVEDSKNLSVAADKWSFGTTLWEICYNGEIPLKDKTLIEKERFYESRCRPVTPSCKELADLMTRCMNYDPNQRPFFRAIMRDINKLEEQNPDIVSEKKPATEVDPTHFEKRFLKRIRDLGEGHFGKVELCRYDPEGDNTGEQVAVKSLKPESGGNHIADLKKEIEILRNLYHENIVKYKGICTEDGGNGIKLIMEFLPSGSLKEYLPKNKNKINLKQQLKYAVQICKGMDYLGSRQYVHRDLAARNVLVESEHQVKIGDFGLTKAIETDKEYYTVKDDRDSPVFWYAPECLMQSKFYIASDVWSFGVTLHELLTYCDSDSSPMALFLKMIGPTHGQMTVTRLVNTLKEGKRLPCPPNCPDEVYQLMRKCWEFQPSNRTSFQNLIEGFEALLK
Description: as §1, §2, §3, §4

[5] = target: T3, ACK (Homo sapiens, UniProt Q07912); assay: Probe-based (AX9989) kinase profiling in Jurkat lysate: ACK; assay type: binding; conditions: screening concentration 1.0 μM; read-out: Kinase inhibition % at indicated screening concentration: ACK
T3 construct: screened for activity against several kinases in Jurkat cells; endogenous in cells; host or cells: Jurkat cell lysate
T3 sequence (Q07912 whole entry): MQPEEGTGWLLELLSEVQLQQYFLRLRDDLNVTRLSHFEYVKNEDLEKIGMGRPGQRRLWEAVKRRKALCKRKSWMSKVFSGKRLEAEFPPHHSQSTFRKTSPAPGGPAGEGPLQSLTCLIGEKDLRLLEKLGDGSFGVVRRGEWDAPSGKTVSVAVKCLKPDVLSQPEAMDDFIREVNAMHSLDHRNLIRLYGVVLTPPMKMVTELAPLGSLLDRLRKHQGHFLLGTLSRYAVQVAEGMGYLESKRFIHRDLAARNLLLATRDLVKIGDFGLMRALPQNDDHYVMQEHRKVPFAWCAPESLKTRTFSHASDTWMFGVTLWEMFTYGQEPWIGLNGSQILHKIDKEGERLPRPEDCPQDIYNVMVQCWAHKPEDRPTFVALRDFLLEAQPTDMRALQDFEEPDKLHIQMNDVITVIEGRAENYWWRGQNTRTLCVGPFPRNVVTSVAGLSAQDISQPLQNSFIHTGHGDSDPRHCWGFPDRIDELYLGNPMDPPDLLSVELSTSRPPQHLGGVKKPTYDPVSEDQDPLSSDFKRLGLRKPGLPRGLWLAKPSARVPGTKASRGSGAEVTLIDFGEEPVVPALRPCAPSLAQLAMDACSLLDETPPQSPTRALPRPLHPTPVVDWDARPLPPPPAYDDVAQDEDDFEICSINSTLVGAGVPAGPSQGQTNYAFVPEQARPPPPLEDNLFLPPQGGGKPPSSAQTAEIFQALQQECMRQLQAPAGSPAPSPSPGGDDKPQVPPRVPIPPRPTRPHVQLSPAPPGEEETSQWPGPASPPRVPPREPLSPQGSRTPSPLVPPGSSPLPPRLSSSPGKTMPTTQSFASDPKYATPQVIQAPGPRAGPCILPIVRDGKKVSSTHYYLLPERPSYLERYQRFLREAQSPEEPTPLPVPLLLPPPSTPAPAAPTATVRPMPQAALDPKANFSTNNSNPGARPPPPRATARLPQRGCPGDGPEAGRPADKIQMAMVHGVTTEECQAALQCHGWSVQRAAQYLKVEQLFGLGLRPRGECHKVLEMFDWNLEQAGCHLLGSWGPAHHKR
Description: as §1, §2, §3, §4

[6] = tested on: AurB or AurC; assay: Probe-based (AX9989) kinase profiling in Jurkat lysate: AurB or AurC; assay type: binding; conditions: screening concentration 1.0 μM
Description: as §1, §2, §3, §4

[7] = tested on: ABL or ARG; assay: Probe-based (AX9989) kinase profiling in Jurkat lysate: ABL or ARG; assay type: binding; conditions: screening concentration 1.0 μM
Description: as §1, §2, §3, §4

[8] = target: T4, AurA (Homo sapiens, UniProt O14965); assay: Probe-based (AX9989) kinase profiling in Jurkat lysate: AurA; assay type: binding; conditions: screening concentration 1.0 μM; read-out: Kinase inhibition % at indicated screening concentration: AurA
T4 construct: screened for activity against several kinases in Jurkat cells; endogenous in cells; host or cells: Jurkat cell lysate
T4 sequence (O14965 1-403): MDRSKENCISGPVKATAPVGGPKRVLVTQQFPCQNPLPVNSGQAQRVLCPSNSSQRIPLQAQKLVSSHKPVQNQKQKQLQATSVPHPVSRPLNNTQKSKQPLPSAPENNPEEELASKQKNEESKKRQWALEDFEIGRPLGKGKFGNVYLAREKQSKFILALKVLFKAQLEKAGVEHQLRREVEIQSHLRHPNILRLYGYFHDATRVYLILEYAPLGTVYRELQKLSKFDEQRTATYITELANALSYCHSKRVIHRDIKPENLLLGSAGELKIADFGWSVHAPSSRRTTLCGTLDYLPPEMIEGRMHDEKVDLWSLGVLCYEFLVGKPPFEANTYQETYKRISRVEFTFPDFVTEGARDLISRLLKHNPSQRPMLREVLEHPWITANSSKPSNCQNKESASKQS
Description: as §1, §2, §3, §4

[9] = target: T5, TAO2 (Homo sapiens, UniProt Q9UL54); assay: Probe-based (AX9989) kinase profiling in Jurkat lysate: TAO2; assay type: binding; conditions: screening concentration 1.0 μM; read-out: Kinase inhibition % at indicated screening concentration: TAO2
T5 construct: screened for activity against several kinases in Jurkat cells; endogenous in cells; host or cells: Jurkat cell lysate
T5 sequence (Q9UL54 1-1235): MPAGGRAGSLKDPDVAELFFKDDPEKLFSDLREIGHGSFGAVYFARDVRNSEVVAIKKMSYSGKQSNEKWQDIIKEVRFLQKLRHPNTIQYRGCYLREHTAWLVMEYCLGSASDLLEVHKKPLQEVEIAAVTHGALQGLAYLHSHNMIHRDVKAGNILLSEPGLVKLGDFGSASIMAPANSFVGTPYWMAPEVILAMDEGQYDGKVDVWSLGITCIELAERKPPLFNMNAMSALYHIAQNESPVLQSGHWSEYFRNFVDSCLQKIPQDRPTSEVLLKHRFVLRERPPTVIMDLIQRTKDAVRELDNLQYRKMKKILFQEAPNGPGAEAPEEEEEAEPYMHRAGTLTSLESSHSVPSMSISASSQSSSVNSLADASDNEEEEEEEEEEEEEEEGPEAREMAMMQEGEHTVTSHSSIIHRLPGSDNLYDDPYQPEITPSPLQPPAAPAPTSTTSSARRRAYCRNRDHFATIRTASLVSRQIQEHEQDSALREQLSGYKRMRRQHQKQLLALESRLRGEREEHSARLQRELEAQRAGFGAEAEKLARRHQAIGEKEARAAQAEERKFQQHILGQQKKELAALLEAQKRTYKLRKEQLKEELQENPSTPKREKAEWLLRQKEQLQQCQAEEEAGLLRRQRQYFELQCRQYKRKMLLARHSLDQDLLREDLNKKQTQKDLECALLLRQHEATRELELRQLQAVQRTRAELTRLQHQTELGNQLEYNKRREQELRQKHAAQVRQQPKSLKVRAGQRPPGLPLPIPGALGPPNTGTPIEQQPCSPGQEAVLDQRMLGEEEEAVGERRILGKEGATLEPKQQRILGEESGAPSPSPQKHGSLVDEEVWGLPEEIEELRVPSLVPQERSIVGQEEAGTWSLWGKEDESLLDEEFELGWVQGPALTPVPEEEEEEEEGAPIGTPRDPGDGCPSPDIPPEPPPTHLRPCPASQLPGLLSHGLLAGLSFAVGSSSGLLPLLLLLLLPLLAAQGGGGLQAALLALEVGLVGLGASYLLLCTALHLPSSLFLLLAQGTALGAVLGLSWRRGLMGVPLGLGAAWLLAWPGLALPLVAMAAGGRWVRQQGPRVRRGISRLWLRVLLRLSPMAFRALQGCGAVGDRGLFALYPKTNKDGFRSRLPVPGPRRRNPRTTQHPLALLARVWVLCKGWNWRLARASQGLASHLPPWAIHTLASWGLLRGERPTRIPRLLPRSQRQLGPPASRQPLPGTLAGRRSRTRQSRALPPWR
Description: as §1, §2, §3, §4

IC50 [1]: > 500 nM
inhibition at 1 µM [1]: 35 to 50%
Compound: Cc1ccc(Nc2cc3c(cn2)N(C)C(=O)c2ccccc2N3C)c(C)c1 [Compound 3]
EC50 [2]: 4230 nM

Kinase inhibition % at indicated screening concentration: AMPKa1 or AMPKa2 [3]: E (E is ≦35%)
inhibition at 1 µM [4]: ≤ 35%
inhibition at 1 µM [5]: ≤ 35%
IC50 [1]: > 500 nM
inhibition at 1 µM [1]: 50 to 75%
Kinase inhibition % at indicated screening concentration: AurB or AurC [6]: E (E is ≦35%)
Kinase inhibition % at indicated screening concentration: ABL or ARG [7]: E (E is ≦35%)
inhibition at 1 µM [8]: ≤ 35%
inhibition at 1 µM [9]: ≤ 35%
Compound: CCOc1ccccc1Nc1cc2c(cn1)N(C)C(=O)c1ccccc1N2C [Compound 13]

Kinase inhibition % at indicated screening concentration: AMPKa1 or AMPKa2 [3]: E (E is ≦35%)
inhibition at 1 µM [4]: ≤ 35%
inhibition at 1 µM [5]: ≤ 35%
IC50 [1]: > 500 nM
inhibition at 1 µM [1]: 50 to 75%
Kinase inhibition % at indicated screening concentration: AurB or AurC [6]: E (E is ≦35%)
Kinase inhibition % at indicated screening concentration: ABL or ARG [7]: E (E is ≦35%)
inhibition at 1 µM [8]: ≤ 35%
inhibition at 1 µM [9]: ≤ 35%
Compound: CCOc1cc(C(=O)O)ccc1Nc1cc2c(cn1)N(C)C(=O)c1ccccc1N2C [Compound 18, 4-(5,11-Dimethyl-10-oxo-10,11-dihydro-5H-benzo[e]pyrido[3,4-b][1,4]diazepin-3-ylamino)-3-ethoxybenzoic acid]

Kinase inhibition % at indicated screening concentration: AMPKa1 or AMPKa2 [3]: E (E is ≦35%)
inhibition at 1 µM [4]: ≤ 35%
inhibition at 1 µM [5]: ≤ 35%
IC50 [1]: > 500 nM
inhibition at 1 µM [1]: 50 to 75%
Kinase inhibition % at indicated screening concentration: AurB or AurC [6]: E (E is ≦35%)
Kinase inhibition % at indicated screening concentration: ABL or ARG [7]: E (E is ≦35%)
inhibition at 1 µM [8]: ≤ 35%
inhibition at 1 µM [9]: ≤ 35%
Compound: COc1ccccc1Nc1cc2c(cn1)N(C)C(=O)c1ccccc1N2C [Compound 19]

Compound: CCOc1cc(C(=O)N(C)C)ccc1Nc1cc2c(cn1)N(C)C(=O)c1ccccc1N2C [Compound 117]
EC50 [2]: 1490 nM

Compound: CCN(CC)CCN(C)C(=O)c1ccc(OC)c(Nc2cc3c(cn2)N(C)C(=O)c2ccccc2N3C)c1 [Compound 118]
EC50 [2]: 3320 nM

Compound: CCN(CC)CCN(C)C(=O)c1cccc(Nc2cc3c(cn2)N(C)C(=O)c2ccccc2N3C)c1OC [Compound 119]
EC50 [2]: 3960 nM

Compound: CCOc1cc(C(=O)N(CCO)CCO)ccc1Nc1cc2c(cn1)N(C)C(=O)c1ccccc1N2C [Compound 121]
EC50 [2]: 950 nM

Compound: CCOc1cc(C(=O)N2CC[C@@H](NC3CCN(C)CC3)C2)ccc1Nc1cc2c(cn1)N(C)C(=O)c1ccccc1N2C [Compound T60]
EC50 [2]: 950 nM

Compound: CCOc1cc(C(=O)N[C@H]2CC[C@H](O)CC2)ccc1Nc1cc2c(cn1)N(C)C(=O)c1ccccc1S2 [Compound T90]
EC50 [2]: > 15000 nM

Compound: CCOc1cc(C(=O)N[C@H]2CC[C@H](O)CC2)ccc1Nc1cc2c(cn1)N(C)C(=O)c1ccccc1S2(=O)=O [Compound T91]
EC50 [2]: > 15000 nM

Compound: CCOc1cc(C(=O)N2CCN(C3CCN(C)CC3)CC2)ccc1Nc1cc2c(cn1)N(C)C(=O)c1ccccc1S2(=O)=O [Compound T101]
EC50 [2]: > 15000 nM
